Values of other authors, collected in patent US20090068287A1, “Novel topical formulations of flucytosine and uses thereof” (priority 2007, published 2009).

Experiments:
C. glabrata [1] = settings: boric acid 600 mg/day 2 to 3 weeks; flucytosine cream nightly for 14 days
C. albicans = settings: 104 patients with vulvovaginal candidiasis
C. tropicalis [2] = settings: 70 C. tropicalis isolates
C. parapsilosis = settings: 65 C. parapsilosis isolates
C. glabrata [3] = settings: 68 C. glabrata isolates
Candida albicans = settings: 342 Candida albicans isolates
[4] = human, in vivo
C. tropicalis [5] = settings: 28 patients on miconazole nitrate, 13 on clotrimazole, nightly for seven nights; 3 secondarily on ketoconazole 200 mg for 14 days

For `C[C@@H]1[C@H](O)[C@@H](C)/C=C/C=C/C=C/C=C/C=C/C=C/C=C/[C@H](O[C@@H]2O[C@H](C)[C@@H](O)[C@H](N)[C@@H]2O)C[C@@H]2O[C@](O)(C[C@@H](O)C[C@@H](O)[C@H](O)CC[C@@H](O)C[C@@H](O)CC(=O)O[C@H]1C)C[C@H](O)[C@H]2C(=O)O` [amphotericin B], the “cross-resistance of fluconazole/itraconazole resistant C. albicans isolates” value (clinical yeast isolates) is listed as “no cross-resistance”.

For `OB(O)O` [boric acid], the “clinical and mycological success / successful outcome, number of women” value (C. glabrata [1]) is given as 47 of 73 and the “clinical and mycological success / successful outcome, percent of women” value (C. glabrata [1]) is given as 64%.

For `OC(Cn1cncn1)(Cn1cncn1)c1ccc(F)cc1F` [fluconazole], the “resistant C. albicans isolated, share of the cases” value (C. albicans) is listed as 13.46%, the isolates resistant (C. tropicalis [2]) is listed as 27.1% and the isolates resistant (C. parapsilosis) is listed as 4.6%. For the same molecule, the isolates resistant (C. glabrata [3]) was 10.3%, the yeast strains resistant (clinical yeast isolates; 227 clinical yeast isolates) was “Almost thirteen percent” and the isolates showing resistance (Candida albicans) was 7.6%.

In the case of `Nc1nc(=O)[nH]cc1F` [flucytosine, 4-amino-5-fluoropyrimidin-2(1H)-one], the “plasma level that led to bone marrow depression and hepatotoxicity” value [4] is given as “greater than 100 mg/L”.

For `CC(=O)N1CCN(c2ccc(OCC3COC(Cn4ccnc4)(c4ccc(Cl)cc4Cl)O3)cc2)CC1` (stereo not drawn) [ketoconazole], the isolates resistant (C. tropicalis [2]) is listed as 2.9%, the patients with recurrences (C. tropicalis [5]) is listed as “all three” and the “cross-resistance of fluconazole/itraconazole resistant C. albicans isolates” value (clinical yeast isolates) is listed as “decreased susceptibilities”.

For `Clc1ccc(COC(Cn2ccnc2)c2ccc(Cl)cc2Cl)c(Cl)c1` (stereo not drawn) [miconazole], the “cross-resistance of fluconazole/itraconazole resistant C. albicans isolates” value (clinical yeast isolates) is given as “decreased susceptibilities”.

For `C[C@@H]1[C@H](O)[C@@H](C)/C=C/C=C/CC/C=C/C=C/C=C/C=C/C(O[C@H]2O[C@H](C)[C@@H](O)[C@H](N)[C@@H]2O)CC2O[C@](O)(CC(O)C(O)CCC(O)CC(O)CC(O)CC(=O)O[C@H]1C)CC(O)C2C(=O)O` (stereo partly drawn) [nystatin], the “cross-resistance of fluconazole/itraconazole resistant C. albicans isolates” value (clinical yeast isolates) is given as “no cross-resistance”.
